Assay results reported in patent US10195189B2, “2-phenethenyltetrahydro isoquinolines useful as anti-HIV compounds” (priority 2014, dated 2019).

The compounds below were run on HIV-1 NL4-3 viral clone expressing Renilla luciferase (assay: microbe, parasite or virus in culture). Conditions: Human immunodeficiency virus 1, NL43, MT2, 96 h.
Assay type: cell-based
Experimental: Protocol for MT-2 Spread Assay
The present assay was used to screen candidate antiviral compounds by quantification of virus spread and production over several rounds of infection in vitro. MT-2, a HIV-1 permissive human T-cell line, was seeded in microtiter plates and was simultaneously treated with serially diluted compound and inoculated with a HIV-1 NL4-3 viral clone engineered to express Renilla luciferase in place of Net Following treatment, the culture was incubated for 96 hours. After the incubation, media was collected and used to estimate relative infectivity on the indicator cell line, TZM-bl. Additionally, viral spread was quantified by measuring luciferase activity via a commercially available luciferase substrate. In parallel, MT-2 cells were seeded and inoculated with mock virus in the presence of serially diluted compound. Compound toxicity was quantified 96 hours after treatment with AlamarBlue.
MT-2 (NIH Aids reagent program 237) cells were grown and maintained in an incubator at 37° C. with 5% CO2 using a basal medium of RPMI-1640 supplemented with 10% FBS. Cells were seeded in 100 μl at 2×10^4 cells/well in white walled 96-well microtiter plates. Candidate compounds were 3-fold serially diluted in the appropriate solvent. Solvent without compound was used as a no drug reference. Cells were inoculated at a multiplicity of 0.027 with an HIV-1 NL4-3 virus stock engineered to express Renilla luciferase in place of Net Diluted virus stock was first added to serially diluted compound. Compound and virus were delivered to cells in an equal volume (100 μl) and treated cultures were returned to the incubator for 96 hours. In parallel, plates for cytotoxicity estimates were prepared in the same way except cells were plated in clear walled 96-well microtiter plates and were mock infected.
At 96 hours post infection, 100 μl virus containing culture supernatant was collected from the treated and infected cultures and serially diluted in DMEM supplemented with 10% FBS, 1% sodium pyruvate, and 20 μg/ml DEAE dextran. One day prior, TZM-bl (ATCC PTA-5659) were cultured in basal medium of DMEM supplemented with 10% FBS and 1% sodium pyruvate and seeded at 7.5×10^3 cells/well in black walled 96-well microtiter plates. Diluted virus containing culture supernatant was transferred to TZM-bl cultures and incubated for 48 hours at 37° C. with 5% CO2. Infected TZM-bl cultures were fixed for 5 minutes with a 1% formaldehyde/0.2% gluteraldehyde/PBS solution then washed three times with PBS. Fixed cultures were incubated at 37° C. for 25 minutes with a 200 μg/ml MUG (4-Methylumbelliferyl β-D-[…])/DMEM solution. The reaction was stopped with an equal volume of 1M sodium carbonate and read at 360, 449 nm on fluorescence plate reader (Biotek).
At 96 hours post infection, 100 μl of culture supernatant was removed from the treated and infected cultures and EnduRen live cell substrate (Promega) was added at a final concentration 1.3 μg/ml. Cells were incubated for 1.5 hours at 37° C. with 5% CO2 then read on a luminescence plate reader (Biotek).
For all assays, data was imported into Accelrys Assay Explorer 3.3. In Assay Explorer, % inhibition (antiviral or cytotoxicity) was calculated using the solvent control as a reference by the following equation: 1−(SignalCompound/SignalReference). The % Inhibition and compound concentration data was fitted using the following 4-parameter logistic model (Assay Explorer model 42):
[formula] where X is compound concentration, Y is % inhibition, D is the maximum % Inhibition (constrained to 100%), C is IC50 value or inflection point, B is the hill slope, and A is the minimum % inhibition (constrained to 0%). The IC50 value is reported as the EC50 or CC50 depending on the assay endpoint. EC50 represents the effective concentration at which virus replication is inhibited by 50 percent. CC50 represents the concentration that results in the death of 50 percent of the host cells. […]
Compound COc1cc2c(cc1OCc1ccccc1)CCNC2/C=C/c1cc(OCC2CCNCC2)c(OC)cc1C (stereo not shown) [BY, 6-Benzyloxy-7-methoxy-1-[(E)-2-[4-methoxy-2-methyl-5-(4-piperidylmethoxy)phenyl]vinyl]-1,2,3,4-tetrahydroisoquinoline] has an EC50 of 397 nM. CCCCN1CCc2cc(OC)c(OCc3ccccc3)cc2C1/C=C/c1ccc(OCc2ccccc2)c(OC)c1 (stereo not shown) [Example D, 7-Benzyloxy-1-[(E)-2-(4-benzyloxy-3-methoxy-phenyl)vinyl]-2-butyl-6-methoxy-3,4-dihydro-1H-isoquinoline] was tested, and the EC50 was 8920 nM. COc1ccc(/C=C/C2NCCc3cc(OCc4ccccc4)c(OC)cc32)cc1COCC(F)(F)F (stereo not shown) [EO, 6-Benzyloxy-7-methoxy-1-[(E)-2-[4-methoxy-3-(2,2,2-trifluoroethoxymethyl)phenyl]vinyl]-1,2,3,4-tetrahydroisoquinoline] showed an EC50 of 504 nM. For COc1ccc(/C=C/C2NCCc3cc(OCc4ccccc4)c(OC)cc32)c(OC)c1 (stereo not shown) [AV, 6-Benzyloxy-1-[(E)-2-(2,4-dimethoxyphenyl)vinyl]-7-methoxy-1,2,3,4-tetrahydroisoquinoline], the EC50 was 140 nM. Work on COc1cc(/C=C/C2NCCc3cc(OCc4ccccc4)c(OC)cc32)ccn1 (stereo not shown) [AU, 6-benzyloxy-7-methoxy-1-[(E)-2-(2-methoxy-4-pyridyl)vinyl]-1,2,3,4-tetrahydroisoquinoline] yielded an EC50 of 1650 nM. Work on COc1cc2c(cc1OCc1ccccc1)CCNC2/C=C/c1ccc(N2CCCCC2)cc1 (stereo not shown) [EA, 6-Benzyloxy-7-methoxy-1-[(E)-2-[4-(1-piperidyl)phenyl]vinyl]-1,2,3,4-tetrahydroisoquinoline] yielded an EC50 of 2100 nM. COc1ccc(OC)c(/C=C/C2NCCc3cc(OCc4ccccc4)c(OC)cc32)c1 (stereo not shown) [EK, 6-Benzyloxy-1-[(E)-2-(2,5-dimethoxyphenyl)vinyl]-7-methoxy-1,2,3,4-tetrahydroisoquinoline] gave an EC50 of 380 nM. In the case of CCOC(=O)CCCOc1cc(/C=C/C2NCCc3cc(OCc4ccccc4)c(OC)cc32)ccc1OC (stereo not shown) [CV, Ethyl 4-[5-[(E)-2-(6-benzyloxy-7-methoxy-1,2,3,4-tetrahydroisoquinolin-1-yl)vinyl]-2-methoxy-phenoxy]butanoate], the EC50 is reported as 100 nM. COc1cc(C)c(/C=C/C2NCCc3cc(OCc4ccccc4)c(OC)cc32)cc1C (stereo not shown) [BV, 6-Benzyloxy-7-methoxy-1-[(E)-2-(4-methoxy-2,5-dimethyl-phenyl)vinyl]-1,2,3,4-tetrahydroisoquinoline] gave an EC50 of 304 nM. For COc1cc2c(cc1OCc1ccccc1)CCNC2/C=C/c1cc(OC)c(OCc2ccccc2)c(OC)c1 (stereo not shown) [AP, 6-Benzyloxy-1-[(E)-2-(4-benzyloxy-3,5-dimethoxy-phenyl)vinyl]-7-methoxy-1,2,3,4-tetrahydroisoquinoline], the EC50 was 970 nM. With COc1cc(OC)c(OC)cc1/C=C/C1NCCc2cc(OCc3ccccc3)c(OC)cc21 (stereo not shown) [AQ, 6-Benzyloxy-7-methoxy-1-[(E)-2-(2,4,5-trimethoxyphenyl)vinyl]-1,2,3,4-tetrahydroisoquinoline] the EC50 was 15.1 nM. COc1cc2c(cc1OCc1ccccc1)CCNC2/C=C/c1cc2c(cc1C)OCCO2 (stereo not shown) [BC, 6-Benzyloxy-7-methoxy-1-[(E)-2-(7-methyl-2,3-dihydro-1,4-benzodioxin-6-yl)vinyl]-1,2,3,4-tetrahydroisoquinoline] gave an EC50 of 27.1 nM. COc1ccc(/C=C/C2NCCc3cc(OCc4ccccc4)c(OC)cc32)cc1Br (stereo not shown) [AR, 6-Benzyloxy-1-[(E)-2-(3-bromo-4-methoxy-phenyl)vinyl]-7-methoxy-1,2,3,4-tetrahydroisoquinoline] showed an EC50 of 800 nM. CCN1CCN(c2ccc(/C=C/C3NCCc4cc(OCc5ccccc5)c(OC)cc43)cc2)CC1 (stereo not shown) [DO, (E)-6-(benzyloxy)-1-(4-(4-ethylpyrazin-1-yl)styryl)-7-methoxy-1,2,3,4-tetrahydroisoquinoline] showed an EC50 of 496 nM. With COc1cc2c(cc1OCc1ccccc1)CCNC2/C=C/c1ccc(S(C)(=O)=O)cc1 (stereo not shown) [BZ, 6-Benzyloxy-7-methoxy-1-[(E)-2-(4-methylsulfonylphenyl)vinyl]-1,2,3,4-tetrahydroisoquinoline] the EC50 was 1000 nM. Work on COc1cc2c(cc1OCc1ccccc1)CCNC2/C=C/c1ccc(-c2ncco2)cc1 (stereo not shown) [ED, 2-[4-[(E)-2-(6-Benzyloxy-7-methoxy-1,2,3,4-tetrahydroisoquinolin-1-yl)vinyl]phenyl]oxazole] yielded an EC50 of 580 nM. With COc1cc2c(cc1OCc1ccccc1)CCNC2/C=C/c1cc(C(C)C)c(OC)cc1C (stereo not shown) [BW, 6-Benzyloxy-1-[(E)-2-(5-isopropyl-4-methoxy-2-methyl-phenyl)vinyl]-7-methoxy-1,2,3,4-tetrahydroisoquinoline] the EC50 was 840 nM. COc1cc(/C=C/C2NCCc3cc(OCc4ccccc4)c(OC)cc32)cc(OC)c1 (stereo not shown) [AT, 6-Benzyloxy-1-[(E)-2-(3,5-dimethoxyphenyl)vinyl]-7-methoxy-1,2,3,4-tetrahydroisoquinoline] was tested, and the EC50 was 770 nM. COc1cc2c(cc1OCc1ccccc1)CCNC2/C=C/c1ccccc1N1CCOCC1 (stereo not shown) [DH, (E)-4-(2-(2-(6-(benzyloxy)-7-methoxy-1,2,3,4-tetrahydroisoquinolin-1-yl)vinyl)phenyl)morpholine] was tested, and the EC50 was 5260 nM. COc1cc2c(cc1OCc1ccccc1)CCNC2/C=C/c1cc(C)c(OC)c(C(F)(F)F)c1 (stereo not shown) [CZ, (E)-6-(benzyloxy)-7-methoxy-1-(4-methoxy-3-methyl-5-(trifluoromethyl)styryl)-1,2,3,4-tetrahydroisoquinoline] showed an EC50 of 2190 nM. With COc1cc2c(cc1OCc1ccccc1)CCNC2/C=C/c1cc(OC)c(OC)c(OC)c1 (stereo not shown) [Example AM, 6-Benzyloxy-7-methoxy-1-[(E)-2-(3,4,5-trimethoxyphenyl)vinyl]-1,2,3,4-tetrahydroisoquinoline] the EC50 was 220 nM. In the case of COc1cc2c(cc1OCc1ccccc1)CCNC2/C=C/c1ccccc1C(=O)O (stereo not shown) [ES, 2-[(E)-2-(6-benzyloxy-7-methoxy-1,2,3,4-tetrahydroisoquinolin-1-yl)vinyl]benzoic acid], the EC50 is reported as 8620 nM. COc1cc(C)c(CCC2NCCc3cc(OCc4ccccc4)c(OC)cc32)cc1OCc1ccccc1 (stereo not shown) [Example Q, 6-benzyloxy-1-[2-(5-benzyloxy-4-methoxy-2-methyl-phenyl)ethyl]-7-methoxy-1,2,3,4-tetrahydroisoquinoline] was tested, and the EC50 was 1360 nM. COc1cc2c(cc1OCc1ccccc1)CCNC2/C=C/c1cc2c(cc1C)OCC2 (stereo not shown) [CG, 6-Benzyloxy-7-methoxy-1-[(E)-2-(6-methyl-2,3-dihydrobenzofuran-5-yl)vinyl]-1,2,3,4-tetrahydroisoquinoline] was tested, and the EC50 was 140 nM. In the case of COc1ccc(/C=C/C2NCCc3cc(OCc4ccccc4)c(OC)cc32)cc1OC (stereo not shown) [BQ, 6-Benzyloxy-1-[(E)-2-(3,4-dimethoxyphenyl)vinyl]-7-methoxy-1,2,3,4-tetrahydroisoquinoline], the EC50 is reported as 198 nM. COCCCCOc1cc(OC)ccc1/C=C/C1NCCc2cc(OCc3ccccc3)c(OC)cc21 (stereo not shown) [Example AI, (E)-6-(benzyloxy)-7-methoxy-1-(4-methoxy-2-(4-methoxybutoxy)styryl)-1,2,3,4-tetrahydroisoquinoline] was tested, and the EC50 was 1500 nM. For COc1cc2c(cc1OCc1ccccc1)CCNC2/C=C/c1ccc(OC)c2ccoc12 (stereo not shown) [Example AO, 6-Benzyloxy-7-methoxy-1-[(E)-2-(4-methoxybenzofuran-7-yl)vinyl]-1,2,3,4-tetrahydroisoquinoline], the EC50 was 1130 nM. In the case of CCCCOc1ccc(/C=C/C2NCCc3cc(OCc4ccccc4)c(OC)cc32)cc1OC (stereo not shown) [BD, 6-Benzyloxy-1-[(E)-2-(4-butoxy-3-methoxy-phenyl)vinyl]-7-methoxy-1,2,3,4-tetrahydroisoquinoline], the EC50 is reported as 408 nM.
